The record followed here is ChEMBL document CHEMBL5252658, “Conversion of a Cardiac Muscle Modulator from an Inhibitor to an Activator” (ACS Med Chem Lett, 2023).

Active and inactive are the calls of the source. The calls are words filed in the database; no cut-off is given here.

Experiment [1] in a line: Binding affinity to CTNI-CTNC N-domain chimera (unknown origin) assessed as dissociation constant. The arrangement: species or system Homo sapiens.
The species entered for experiment [2] is Bos taurus. The experiment in a line: Modulation of bovine cardiac myofibrils ATPase activity at 50 uM relative to control. Conditions: filed as modulator.
Experiment [3] is filed under the species Rattus norvegicus. The experiment can be described thus: Cardiovascular activity in rat ventricular trabeculae assessed as increase in calcium sensitivity of force development at 50 uM. It is filed as functional.

As for `NCCCCCCCCNS(=O)(=O)c1cccc(-c2ccc(F)cc2F)c1`, in experiment [1], the Kd (commonly the equilibrium constant for the complex coming apart) is 60 µM. For the same molecule, the Activity in experiment [2] stood at 30%.

With `NCCCCCCCNS(=O)(=O)c1cccc(-c2ccc(F)cc2F)c1`, the Kd in experiment [1] is 120 µM. This molecule also returned an Activity in experiment [2] of 30%.

With `NCCCCCCNS(=O)(=O)c1cccc2c(Cl)cccc12`, the Kd in experiment [1] turned out to be 470 µM.

As to `NCCCCCCNS(=O)(=O)c1cccc(-c2ccc(F)cc2F)c1`, the outcome in experiment [3] was Active. The Kd in experiment [1] was 200 µM. In experiment [2], the Activity was 30%.
